Patent US11000033B2, “Ketone or oxime compound, and herbicide” (NISSAN CHEMICAL CORPORATION, priority 2014, dated 2021)

Assays:
Assay type in all cases: in vivo
[1] = system: Echinochloa crus-galli var. crus-galli; assay: Test Example 5: herbicidal effect by foliage application, plastic box (symbol H); details: 320 g/ha, 3 weeks after application
Outline: (§1)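 Emulsion formulation, diluted with water to the intended rate, was applied uniformly to leaves by small sprayer. Recipients were 14-day greenhouse-grown seedlings (25° C. to 30° C.). Assessment followed at 3 weeks.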

Veronica persica [2] = assay: Test Example 4: herbicidal effect by soil treatment (symbol R); details: application herbicide amount 320 g/ha
Outline: (§2)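 Seeds were sown in sterilized diluvial soil, covered with about 1.5 cm of soil, and the soil surface was sprayed with a water-diluted emulsion of the compound at a predetermined rate. Plants grew in a greenhouse at 25° C. to 30° C.; effects were scored visually 3 weeks after application.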

Avena fatua [3] = assay: Test Example 5: herbicidal effect by foliage application, plastic box (symbol I); details: 320 g/ha, 3 weeks after application
Outline: as §1

Avena fatua [4] = assay: Test Example 4: herbicidal effect by soil treatment (symbol I); details: application herbicide amount 320 g/ha
Outline: as §2

rice = assay: Test Example 4: effect on crop by soil treatment (symbol b); details: application herbicide amount 320 g/ha
Outline: (§3)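 Sterilized diluvial soil, spot sowing, ~1.5 cm soil cover; greenhouse 25–30° C.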

Chenopodium album = assay: Test Example 5: herbicidal effect by foliage application, plastic box (symbol O); details: 320 g/ha, 3 weeks after application
Outline: as §1

Setaria viridis [5] = assay: Test Example 5: herbicidal effect by foliage application, plastic box (symbol G); details: 320 g/ha, 3 weeks after application
Outline: as §1

Apera spica-venti [6] = assay: Test Example 5: herbicidal effect by foliage application, plastic box (symbol L); details: 320 g/ha, 3 weeks after application
Outline: as §1

Apera spica-venti [7] = assay: Test Example 4: herbicidal effect by soil treatment (symbol L); details: application herbicide amount 320 g/ha
Outline: as §2

Digitaria ciliaris = assay: Test Example 5: herbicidal effect by foliage application, plastic box (symbol F); details: 320 g/ha, 3 weeks after application
Outline: as §1

Monochoria vaginalis = assay: Test Example 2: herbicidal activity, application during weed generation in submerged conditions (symbol C); details: Table 23; application herbicide amount 320 g/ha; grade 0-5 by criteria of Test Example 1
Outline: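 Flooded-soil post-emergence test: emulsion of compound, water-diluted to target rate, applied to paddy water surface at 1–2 leaf stage of mixed-sown weeds (alluvial soil, 4 cm water, 25–30° C. greenhouse); visual rating 3 weeks after application.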

Scirpus juncoides = assay: Test Example 1: herbicidal activity, application before weed generation in submerged conditions (symbol B); details: application herbicide amount 320 g/ha
Outline: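 Application before weed emergence: an aqueous dilution of the emulsion formulation was poured onto the surface of 4 cm-deep floodwater on the day of sowing. Effect was judged after 3 weeks (greenhouse, 25–30 °C).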

rapeseed [8] = assay: Test Example 5: effect on crop by foliage application, plastic box (symbol g); details: 320 g/ha, 3 weeks after application
Outline: (§4)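 Diluvial soil, sterilized and boxed (21 × 13 × 7 cm), received spot-sown seed covered by about 1.5 cm soil; plants were then greenhouse-grown at 25–30° C.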

Setaria viridis [9] = assay: Test Example 4: herbicidal effect by soil treatment (symbol G); details: application herbicide amount 320 g/ha
Outline: as §2

soybean = assay: Test Example 5: effect on crop by foliage application, plastic box (symbol d); details: 320 g/ha, 3 weeks after application
Outline: as §4

Veronica persica [10] = assay: Test Example 5: herbicidal effect by foliage application, plastic box (symbol R); details: 320 g/ha, 3 weeks after application
Outline: as §1

Abutilon theophrasti = assay: Test Example 5: herbicidal effect by foliage application, plastic box (symbol M); details: 320 g/ha, 3 weeks after application
Outline: as §1

rapeseed [11] = assay: Test Example 4: effect on crop by soil treatment (symbol g); details: application herbicide amount 320 g/ha
Outline: as §3

SMILES | H: Echinochloa crus-galli var. crus-galli, herbicidal effect grade [1] | R (Veronica persica) herbicidal effect grade (Veronica persica [2]) | I: Avena fatua, herbicidal effect grade (Avena fatua [3]) | I (Avena fatua) herbicidal effect grade (Avena fatua [4]) | b (directly sowed rice plant) effect on crop grade (rice) | O: Chenopodium album, herbicidal effect grade (Chenopodium album) | G: Setaria viridis, herbicidal effect grade (Setaria viridis [5]) | L: Apera spica-venti, herbicidal effect grade (Apera spica-venti [6]) | L (Apera spica-venti) herbicidal effect grade (Apera spica-venti [7]) | F: Digitaria ciliaris, herbicidal effect grade (Digitaria ciliaris) | Herbicidal effect grade, C: Monochoria vaginalis (Monochoria vaginalis) | Herbicidal effect grade, B: Scirpus juncoides (Scirpus juncoides) | g: rapeseed, effect on crop grade (rapeseed [8]) | G (Setaria viridis) herbicidal effect grade (Setaria viridis [9]) | d: soybean, effect on crop grade (soybean) | R: Veronica persica, herbicidal effect grade (Veronica persica [10]) | M: Abutilon theophrasti, herbicidal effect grade (Abutilon theophrasti) | g (rapeseed) effect on crop grade (rapeseed [11])
CON=C(CC1CC(O)=C(c2c(C)cc(C)cc2C)C1=O)C(C)C (stereo not drawn) [1-048] | 5 (Herbicidal ratio of 90% or more (almost completely withered)) | 0 (Herbicidal ratio of 5% or lower (almost no effect)) | 4 (Herbicidal ratio of 70% or higher and lower than 90%) | 1 (Herbicidal ratio of 5% or higher and lower than 20%) | 5 (Herbicidal ratio of 90% or more (almost completely withered)) | 3 (Herbicidal ratio of 40% or higher and lower than 70%) | 4 (Herbicidal ratio of 70% or higher and lower than 90%) | 5 (Herbicidal ratio of 90% or more (almost completely withered)) | 5 (Herbicidal ratio of 90% or more (almost completely withered)) | 4 (Herbicidal ratio of 70% or higher and lower than 90%) | 2 (Herbicidal ratio of 20% or higher and lower than 40%) | 4 (Herbicidal ratio of 70% or higher and lower than 90%) | 3 (Herbicidal ratio of 40% or higher and lower than 70%) | 5 (Herbicidal ratio of 90% or more (almost completely withered)) | 0 (Herbicidal ratio of 5% or lower (almost no effect)) | 3 (Herbicidal ratio of 40% or higher and lower than 70%) | 3 (Herbicidal ratio of 40% or higher and lower than 70%) | 0 (Herbicidal ratio of 5% or lower (almost no effect))
CC(CC1CC(O)=C(c2c(C)cc(C)cc2C)C1=O)=NOC(C)C (stereo not drawn) [1-052] | 5 (Herbicidal ratio of 90% or more (almost completely withered)) | 0 (Herbicidal ratio of 5% or lower (almost no effect)) | 5 (Herbicidal ratio of 90% or more (almost completely withered)) | 4 (Herbicidal ratio of 70% or higher and lower than 90%) | 5 (Herbicidal ratio of 90% or more (almost completely withered)) | 1 (Herbicidal ratio of 5% or higher and lower than 20%) | 5 (Herbicidal ratio of 90% or more (almost completely withered)) | 5 (Herbicidal ratio of 90% or more (almost completely withered)) | 5 (Herbicidal ratio of 90% or more (almost completely withered)) | 5 (Herbicidal ratio of 90% or more (almost completely withered)) | 0 (Herbicidal ratio of 5% or lower (almost no effect)) | 5 (Herbicidal ratio of 90% or more (almost completely withered)) | 4 (Herbicidal ratio of 70% or higher and lower than 90%) | 5 (Herbicidal ratio of 90% or more (almost completely withered)) | 4 (Herbicidal ratio of 70% or higher and lower than 90%) | 3 (Herbicidal ratio of 40% or higher and lower than 70%) | 3 (Herbicidal ratio of 40% or higher and lower than 70%) | 3 (Herbicidal ratio of 40% or higher and lower than 70%)
CC(CC1CC(O)=C(c2c(C)cc(C)cc2C)C1=O)=NOC(C)(C)C (stereo not drawn) [1-053] | 4 (Herbicidal ratio of 70% or higher and lower than 90%) | 0 (Herbicidal ratio of 5% or lower (almost no effect)) | 2 (Herbicidal ratio of 20% or higher and lower than 40%) | 0 (Herbicidal ratio of 5% or lower (almost no effect)) | 5 (Herbicidal ratio of 90% or more (almost completely withered)) | 1 (Herbicidal ratio of 5% or higher and lower than 20%) | 3 (Herbicidal ratio of 40% or higher and lower than 70%) | 3 (Herbicidal ratio of 40% or higher and lower than 70%) | 3 (Herbicidal ratio of 40% or higher and lower than 70%) | 3 (Herbicidal ratio of 40% or higher and lower than 70%) | 0 (Herbicidal ratio of 5% or lower (almost no effect)) | 3 (Herbicidal ratio of 40% or higher and lower than 70%) | 4 (Herbicidal ratio of 70% or higher and lower than 90%) | 4 (Herbicidal ratio of 70% or higher and lower than 90%) | 3 (Herbicidal ratio of 40% or higher and lower than 70%) | 2 (Herbicidal ratio of 20% or higher and lower than 40%) | 0 (Herbicidal ratio of 5% or lower (almost no effect)) | 3 (Herbicidal ratio of 40% or higher and lower than 70%)
CCCCCCCON=C(C)CC1CC(O)=C(c2c(C)cc(C)cc2C)C1=O (stereo not drawn) [1-054] | 4 (Herbicidal ratio of 70% or higher and lower than 90%) | 0 (Herbicidal ratio of 5% or lower (almost no effect)) | 3 (Herbicidal ratio of 40% or higher and lower than 70%) | 0 (Herbicidal ratio of 5% or lower (almost no effect)) | 5 (Herbicidal ratio of 90% or more (almost completely withered)) | 0 (Herbicidal ratio of 5% or lower (almost no effect)) | 3 (Herbicidal ratio of 40% or higher and lower than 70%) | 3 (Herbicidal ratio of 40% or higher and lower than 70%) | 1 (Herbicidal ratio of 5% or higher and lower than 20%) | 2 (Herbicidal ratio of 20% or higher and lower than 40%) | 0 (Herbicidal ratio of 5% or lower (almost no effect)) | 0 (Herbicidal ratio of 5% or lower (almost no effect)) | 3 (Herbicidal ratio of 40% or higher and lower than 70%) | 5 (Herbicidal ratio of 90% or more (almost completely withered)) | 0 (Herbicidal ratio of 5% or lower (almost no effect)) | 0 (Herbicidal ratio of 5% or lower (almost no effect)) | 0 (Herbicidal ratio of 5% or lower (almost no effect)) | 1 (Herbicidal ratio of 5% or higher and lower than 20%)
